Reference: patent US20030108462A1, “Method of extracting contaminants from solid matter” (priority 2001, published 2003)
Several values for one entry are separate records, joined by “and”; a condition that tells them apart may be missing. Identical values can stand only once.

Columns and labels:
[1] = at 25° C.; cited from earlier work
[2] = Chelating-agent leaching of comminuted CCA treated wood, arsenic; settings: weight basis, before being adjusted for moisture content
Description: (§1) 32 grams of the comminuted treated wood was used to represent 1 mole of the contaminants, and was reacted with 1000 ml of 0.1 mole ethylenediamine-N,N,N′,N′-tetraacetic acid at a temperature of 70° C. for a period of 6 hours. The sample was agitated and allowed to settle periodically to thoroughly mix the wood and the solution, as well as to facilitate leaching. After the last settling period, the mixture stratified into a green colored supernatant which contained the chelated CCA components in soluble form at the top, and clean looking sawdust at the bottom of the reaction container.
(§2) Upon completion of reaction, the supernatant was decanted and retained. The solid section was allowed to drain freely for 15 minutes, after which 500 ml of fresh water was added and the mixture was periodically mixed and allowed to settle for a period of 30 minutes. Similarly, the mixture stratified into a light green solution and cleaner looking saw dust. The liquid was decanted and added to the previously decanted liquid. The settled solids were wrapped in a 250μ filter paper and subjected to a weight of 6 pounds per square inch and allowed to drain. Upon completion, the drained liquid was added to the previously decanted liquids and sent for laboratory analysis. The retained solids were oven dried and analyzed for the target contaminants.
(§3) 100 grams of the comminuted treated wood was used to represent 1 mole of the contaminants and reacted with 1000 mL of 0.1 mole EDTA disodium solution at 30° C. for 30 hours. […]
(§4) Upon completion of reaction, the supernatant was decanted and retained. […] The retained solids were oven dried and analyzed for the target contaminants. […]
(§5) Upon completion of reaction, the supernatant was decanted and retained The solid section was allowed to drain freely for 15 minutes, after which 500 ml of fresh water with a known quality was added and the mixture was periodically mixed and allowed to settle for a period of 30 minutes. […] The retained solids were oven dried and analyzed for the target contaminants.

[3] = Chelating-agent leaching of comminuted CCA treated wood, chromium; settings: weight basis, before being adjusted for moisture content
Description: as §1, §2, §3, §4, §5

[4] = Chelating-agent leaching of comminuted CCA treated wood, copper; settings: weight basis, before being adjusted for moisture content
Description: as §1, §2, §3, §4, §5

Row | SMILES | Solubility [1] [g/l00 mL at 25 °C] | Percent Removal, Arsenic [2] [%] | Percent Removal, Chromium [3] | Percent Removal, Copper [4] [%]
1 | O=C(O)CN(CCN(CC(=O)O)CC(=O)O)CCN(CC(=O)O)CC(=O)O [Diethylenetriamine-N,N,N′,N″,N′-pentaacetic Acid] | 0.46 |  |  | 
2 | O=C(O)CN(CCN(CC(=O)O)CC(=O)O)CC(=O)O [EXAMPLE 3, EDTA Free Acid] |  | 96.09 | 90.09% and 90.89% | 99.75
3 | O=C([O-])CN(CCN(CC(=O)[O-])CC(=O)O)CC(=O)O.[Na+].[Na+] [EXAMPLE 2, EDTA disodium] |  | 96.36 | 90.86% | 98.35
4 | O=C(O)CN(CCN(CC(=O)O)CC(=O)O)CC(=O)O [EXAMPLE 1, ethylenediamine-N,N,N′,N′-tetraacetic acid] |  | 93.28 | 84.47% | 95.54
